Among the test systems are XF498; M19-MEL; DMS-114; SNB-78; HOP-18; DLD-1; LXFL 529; DMS-273; RXF 631.
Assay in all cases: NCI tumour cell line growth inhibition, 48 h

Each structure is given as a SMILES string.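 How tested: cells in 96-well plates exposed to compound for 48 hours at five concentrations. GI50 marks 50% less growth.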 Active and inactive are the calls of the source. Cut-off read from the data, not from the text of the source: active = GI50 up to about 1.1 µM and inactive = higher.

In the case of `CCc1ccc(/C(C)=N/NC(N)=S)cc1`, the GI50 is 0.569 µM (active) in the test on XF498; > 100 µM (inactive) in the test with M19-MEL; 48.9 µM (inactive) in the test with DMS-114; > 100 µM (inactive) in the test on SNB-78; > 100 µM (inactive) in the test on HOP-18.

Consider `COC(=O)c1nc(-c2ccc(Cl)c(Cl)c2)nc2ccc(Cl)cc12`, for which the GI50 is > 100 µM (inactive) in the test with DLD-1; > 100 µM (inactive) in the test with M19-MEL; 13.8 µM (inactive) with DMS-114; 6.59 µM (inactive) with SNB-78; > 100 µM (inactive) with LXFL 529; 81.1 µM (inactive) in the test with DMS-273.

In the case of `Cc1cc(C)nc(NS(=O)(=O)c2ccc(NC(=O)c3cccc4c(Nc5ccc(S(=O)(=O)N=C(N)N)cc5)c5ccccc5nc34)cc2)n1`, the GI50 with DLD-1 was 7.62 µM (inactive); in the test with XF498, > 100 µM (inactive); in the test on RXF 631 it was 27.3 µM (inactive); in the test on M19-MEL it was 22.1 µM (inactive); with SNB-78, 8.3 µM (inactive); with LXFL 529 it was 3.88 µM (inactive). In addition, the figures for the GI50 with DMS-273 and in the test with HOP-18 were 19.7 µM (inactive) and > 100 µM (inactive), respectively.

As for `O=C(CCc1n[nH]c(=S)o1)Nc1cc(Cl)ccc1Cl`, the GI50 was 79.3 µM (inactive) in the test with DLD-1; > 100 µM (inactive) with M19-MEL; > 100 µM (inactive) in the test with SNB-78; 76.4 µM (inactive) with LXFL 529; 19.1 µM (inactive) in the test with DMS-273; > 100 µM (inactive) with HOP-18.

`CCOc1ccc2[nH]c3c(C)c4ccncc4c(C)c3c2c1`: the GI50 in the test with DLD-1 is 0.561 µM (active); in the test with XF498 it was 0.984 µM (active); with RXF 631, 1.27 µM (inactive); with M19-MEL, 1.51 µM (inactive); in the test on DMS-114, 1.34 µM (inactive); with SNB-78 it was 1.34 µM (inactive). In addition, the GI50 was 0.698 µM (active) in the test on LXFL 529 and 0.394 µM (active) with DMS-273.

As for `COc1c(Br)cc(Br)c(OC)c1-c1ccc[nH]1`, the GI50 is 62.5 µM (inactive) with DLD-1; 91 µM (inactive) in the test on M19-MEL; 74.6 µM (inactive) in the test on DMS-114; > 100 µM (inactive) in the test on SNB-78; > 100 µM (inactive) with LXFL 529; 87.9 µM (inactive) in the test with DMS-273.

For the compound `O=C(N/C(=C\c1cccc([N+](=O)[O-])c1)c1nc2ccccc2[nH]1)c1ccccc1`, the GI50 in the test with DLD-1 is 55.5 µM (inactive); in the test with XF498 it was 27.7 µM (inactive); with M19-MEL it was 62.8 µM (inactive); in the test with DMS-114 it was 26.7 µM (inactive); in the test on SNB-78, 44.6 µM (inactive); with LXFL 529, 26.1 µM (inactive). In addition, the GI50 with DMS-273 is 69.2 µM (inactive).

Consider `CC(C)(C)NC(=O)NC12CC3CC(CC(F)(C3)C1)C2`, for which the GI50 in the test on DLD-1, in the test on XF498, in the test with RXF 631, with M19-MEL, in the test on DMS-114 and in the test with SNB-78 was > 100 µM (inactive) each time. The GI50 in the test on LXFL 529 and in the test with DMS-273 was > 100 µM (inactive) throughout.

As for `C[Si](C)(C)/C=C\CCO`, the GI50 in the test with DLD-1, in the test with XF498, in the test on RXF 631, in the test on M19-MEL, in the test on DMS-114 and with SNB-78 was > 100 µM (inactive) in each case. Moreover, the GI50 in the test on LXFL 529, with DMS-273 and in the test with HOP-18 was > 100 µM (inactive) each time.

For `COC(=O)C1=C(c2cc(OC)c(OC)c(OC)c2)OC(c2ccc3c(c2)OCO3)C1` (centres undefined), the GI50 is 23 µM (inactive) in the test with DLD-1; 21.1 µM (inactive) with M19-MEL; 13.9 µM (inactive) in the test on DMS-114; 87.3 µM (inactive) with SNB-78; 25.3 µM (inactive) in the test on LXFL 529; 25.4 µM (inactive) in the test on DMS-273. In addition, the GI50 with HOP-18 was > 100 µM (inactive).

`CN(C)C(=O)NC(=S)N(C)C`: the GI50 in the test on DLD-1, with XF498, in the test on M19-MEL, with DMS-114, in the test with SNB-78 and with LXFL 529 was > 100 µM (inactive) each time. Moreover, the GI50 in the test on DMS-273 and in the test with HOP-18 was > 100 µM (inactive) in each case.

As to `Nc1ncnc2c1ncn2CCOC(c1ccccc1)P(=O)(O)O` (centres undefined), the GI50 with DLD-1, with M19-MEL, with SNB-78, in the test with LXFL 529 and with DMS-273 was > 100 µM (inactive) throughout.

For the compound `C/C(=C\CC/C=C(\C)CC/C=C(\C)CCC1SC1(C)C)CC/C=C(\C)CCC1OC1(C)C` (centres undefined), the GI50 in the test with DLD-1 was > 100 µM (inactive); in the test on XF498, > 100 µM (inactive); in the test on M19-MEL it was 71.4 µM (inactive); with DMS-114, 65.6 µM (inactive); in the test on LXFL 529 it was > 100 µM (inactive); with DMS-273 it was > 100 µM (inactive). Besides, in the test with HOP-18, the GI50 was > 100 µM (inactive).

Consider `c1ccc(C2(c3ccccc3)SSC3(S2)C2CC4CC(C2)CC3C4)cc1` (centres undefined), for which the GI50 in the test with DLD-1, with DMS-114, in the test with SNB-78 and in the test with LXFL 529 was > 100 µM (inactive) throughout.

Regarding `COc1ccc2c(c1[N+](=O)[O-])CC[C@@H]1[C@@H]2CC[C@]2(C)C(=O)CC[C@@H]12`, the GI50 was > 25 µM (inactive) with DLD-1; 20.4 µM (inactive) in the test on XF498; > 25 µM (inactive) with M19-MEL; 18.4 µM (inactive) in the test on DMS-114; 24.7 µM (inactive) in the test on SNB-78; > 25 µM (inactive) in the test on DMS-273. Moreover, in the test on HOP-18, the GI50 was > 25 µM (inactive).

For the compound `CCCC(=O)OCC(O)CO` (centres undefined), the GI50 in the test on DLD-1 is > 5000 µM (inactive); in the test with M19-MEL it was > 5000 µM (inactive); in the test with DMS-114, > 5000 µM (inactive); in the test with SNB-78 it was > 5000 µM (inactive); with LXFL 529 it was > 5000 µM (inactive); in the test on DMS-273, 4040 µM (inactive). In addition, in the test with HOP-18, the GI50 was 1730 µM (inactive).

Consider `CN(C)CC1CCC/C1=N\O` (centres undefined), for which the GI50 in the test with DLD-1, with M19-MEL, in the test with SNB-78, in the test with LXFL 529, with DMS-273 and in the test on HOP-18 was > 100 µM (inactive) each time.

For `CC(=O)OC12c3ccccc3C1CCCCCC21OCCCO1` (centres undefined), the GI50 with DLD-1, in the test on M19-MEL, in the test on DMS-114, in the test on SNB-78, in the test with LXFL 529 and in the test on DMS-273 was > 100 µM (inactive) in each case.

Regarding `Cc1nccc2c1cnc1ccnn12`, the GI50 with DLD-1, in the test on RXF 631, in the test with M19-MEL, with DMS-114, in the test with SNB-78 and in the test on LXFL 529 was > 100 µM (inactive) throughout. The GI50 in the test with DMS-273 is > 100 µM (inactive).

As for `Cc1ccc(C2=C(c3ccc(C)cc3)C(c3ccc(C)cc3)=C(c3ccc(C)cc3)C2=O)cc1`, the GI50 in the test with DLD-1, in the test on XF498, in the test on RXF 631, in the test on M19-MEL, in the test with SNB-78 and with LXFL 529 was > 100 µM (inactive) throughout. Further, the GI50 in the test on HOP-18 is > 100 µM (inactive).

`CC12CC3C(CC1SCC(=O)O2)C3(C)C` (centres undefined): the GI50 in the test with DLD-1, in the test on XF498, in the test on M19-MEL, in the test with DMS-114, in the test on SNB-78 and with LXFL 529 was > 100 µM (inactive) each time. The GI50 in the test on DMS-273 and with HOP-18 was > 100 µM (inactive) throughout.

`Cc1cn(C2CC(OC3CCCCO3)C(CO)O2)c(=O)[nH]c1=O` (centres undefined): the GI50 in the test on DLD-1, in the test on XF498, in the test with M19-MEL, with SNB-78, in the test with LXFL 529 and in the test on DMS-273 was > 100 µM (inactive) each time. Moreover, the GI50 with HOP-18 is > 100 µM (inactive).

Turning to `CC(C)c1ccc(C2NC(S)=NC3=C2c2ccccc2C3=O)cc1` (centres undefined), the GI50 was 48.5 µM (inactive) with DLD-1; 32.4 µM (inactive) in the test on XF498; 54 µM (inactive) in the test on RXF 631; 38.9 µM (inactive) in the test with M19-MEL; 21.3 µM (inactive) in the test on DMS-114; 38.3 µM (inactive) in the test with LXFL 529. Further, the GI50 in the test with DMS-273 was 30 µM (inactive).

With `C1CCNCC1.S=C(S)N1CCCCC1`, the GI50 in the test with RXF 631 was 4.43 µM (inactive); with M19-MEL, 0.685 µM (active); in the test with DMS-114, 0.24 µM (active); in the test on SNB-78, 100 µM (inactive); in the test with HOP-18, 100 µM (inactive).

For `CCOc1ccc(C2=NN(CC)C(=O)C(C3C(=O)N(c4ccccc4)N=C3C)C2)cc1` (centres undefined), the GI50 with DLD-1, in the test on XF498, with M19-MEL, in the test on DMS-114, with SNB-78 and with LXFL 529 was > 100 µM (inactive) in each case. The GI50 in the test on DMS-273 and with HOP-18 was > 100 µM (inactive) throughout.

`CC(CC(=O)N1C(=O)C(C)(C)[C@@H](O)[C@H]1CC(C)C(Cl)(Cl)Cl)C(Cl)(Cl)Cl` (some centres undefined): the GI50 in the test with DLD-1, in the test with XF498, with M19-MEL, in the test with DMS-114, with SNB-78 and in the test with LXFL 529 was > 100 µM (inactive) throughout. In addition, the GI50 in the test with DMS-273 and in the test on HOP-18 was > 100 µM (inactive) throughout.

With `CC1(C)OB(O)OC1(C)C`, the GI50 in the test on DLD-1, in the test with XF498, with DMS-114, with SNB-78, in the test with LXFL 529 and in the test on DMS-273 was > 100 µM (inactive) each time. In addition, the GI50 in the test on HOP-18 was > 100 µM (inactive).

The values are drawn from ChEMBL document CHEMBL1201862, “PubChem BioAssay data set” (2004).
